Experimental data: PubChem BioAssay AID602339 (The Scripps Research Institute Molecular Screening Center, 2012)
Activity calls are given as the source filed them. No rule for the calls is given here.

Tests used:
Experiment in all cases: off-target hydrolase engagement by SILAC proteomics – cell-based, ABPP-SILAC, LC-MS, selectivity assay for DAGLb inhibitor project, late-stage follow-up (AID 602339)
[1] = system: Abhd11; settings: mouse cells, stronger effect = lower value
[2] = system: Abhd12; settings: mouse cells, stronger effect = lower value
[3] = biological target: Abhd4 (UniProt Q8VD66); settings: mouse cells, stronger effect = lower value
Abhd4, sequence (Q8VD66 whole entry, looked up): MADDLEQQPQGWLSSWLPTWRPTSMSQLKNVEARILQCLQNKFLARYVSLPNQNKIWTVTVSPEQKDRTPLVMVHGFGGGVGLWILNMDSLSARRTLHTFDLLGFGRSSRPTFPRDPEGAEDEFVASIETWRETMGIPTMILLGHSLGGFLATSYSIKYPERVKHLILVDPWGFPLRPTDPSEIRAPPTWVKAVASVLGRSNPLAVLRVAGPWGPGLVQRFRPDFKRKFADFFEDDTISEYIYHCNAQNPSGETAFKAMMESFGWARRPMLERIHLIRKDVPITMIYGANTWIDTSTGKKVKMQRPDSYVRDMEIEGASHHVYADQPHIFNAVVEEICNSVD

[4] = system: Ache; settings: mouse cells, stronger effect = lower value
[5] = system: Acot2; settings: mouse cells, stronger effect = lower value
[6] = biological target: Acyl-protein thioesterase 1 (Mus musculus) (UniProt P97823); settings: mouse cells, Lypla1, stronger effect = lower value
Acyl-protein thioesterase 1 (Mus musculus), sequence (P97823 whole entry, looked up): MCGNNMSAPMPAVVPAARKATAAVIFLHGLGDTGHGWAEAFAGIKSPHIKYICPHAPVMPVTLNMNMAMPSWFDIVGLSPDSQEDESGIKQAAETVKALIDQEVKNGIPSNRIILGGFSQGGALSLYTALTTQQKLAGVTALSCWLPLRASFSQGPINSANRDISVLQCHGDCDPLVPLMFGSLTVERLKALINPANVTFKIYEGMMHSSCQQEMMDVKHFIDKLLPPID

[7] = system: Apeh; settings: mouse cells, stronger effect = lower value
[8] = system: Bat5; settings: mouse cells, stronger effect = lower value
[9] = system: Ctsa; settings: mouse cells, stronger effect = lower value
[10] = system: D230012E17Rik; settings: mouse cells, stronger effect = lower value
[11] = system: Ddhd1; settings: mouse cells, stronger effect = lower value
[12] = biological target: Diacylglycerol lipase-beta (Mus musculus) (UniProt Q91WC9); settings: mouse cells, Daglb, stronger effect = lower value
Diacylglycerol lipase-beta (Mus musculus), sequence (Q91WC9 whole entry, looked up): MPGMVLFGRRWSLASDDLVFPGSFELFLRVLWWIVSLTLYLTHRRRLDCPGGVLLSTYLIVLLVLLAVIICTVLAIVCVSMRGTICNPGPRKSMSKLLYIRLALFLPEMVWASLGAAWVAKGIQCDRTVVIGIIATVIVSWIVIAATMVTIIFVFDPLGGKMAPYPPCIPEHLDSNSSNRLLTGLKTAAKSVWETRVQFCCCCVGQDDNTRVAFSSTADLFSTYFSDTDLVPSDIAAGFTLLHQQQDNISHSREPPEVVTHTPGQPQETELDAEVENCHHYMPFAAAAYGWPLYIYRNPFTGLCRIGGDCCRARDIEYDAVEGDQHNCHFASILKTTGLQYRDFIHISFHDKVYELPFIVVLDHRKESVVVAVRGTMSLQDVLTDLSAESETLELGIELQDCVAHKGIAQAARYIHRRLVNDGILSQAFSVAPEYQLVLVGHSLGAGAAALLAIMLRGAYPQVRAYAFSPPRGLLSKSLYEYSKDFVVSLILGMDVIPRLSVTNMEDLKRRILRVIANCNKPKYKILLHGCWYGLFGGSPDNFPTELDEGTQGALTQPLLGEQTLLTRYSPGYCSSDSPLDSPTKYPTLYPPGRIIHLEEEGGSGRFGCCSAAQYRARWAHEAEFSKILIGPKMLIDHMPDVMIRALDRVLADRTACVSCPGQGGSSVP

[13] = system: Dpp7; settings: mouse cells, stronger effect = lower value
[14] = system: Dpp9; settings: mouse cells, stronger effect = lower value
[15] = system: Esd; settings: mouse cells, stronger effect = lower value
[16] = system: Faah; settings: mouse cells, stronger effect = lower value
[17] = system: Fam108b; settings: mouse cells, stronger effect = lower value
[18] = system: Fam108c; settings: mouse cells, stronger effect = lower value
[19] = system: Fasn; settings: mouse cells, stronger effect = lower value
[20] = system: Htra2; settings: mouse cells, stronger effect = lower value
[21] = system: Iah1; settings: mouse cells, stronger effect = lower value
[22] = system: Kiaa1363; settings: mouse cells, stronger effect = lower value
[23] = system: Lactb; settings: mouse cells, stronger effect = lower value
[24] = system: Lipe; settings: mouse cells, stronger effect = lower value
[25] = system: Lonp1; settings: mouse cells, stronger effect = lower value
[26] = system: Lypla2; settings: mouse cells, stronger effect = lower value
[27] = system: Lypla3; settings: mouse cells, stronger effect = lower value
[28] = system: Lyplal1; settings: mouse cells, stronger effect = lower value
[29] = biological target: Monoacylglycerol lipase ABHD6 (Mus musculus) (UniProt Q8R2Y0); settings: mouse cells, stronger effect = lower value
Monoacylglycerol lipase ABHD6 (Mus musculus), sequence (Q8R2Y0 whole entry, looked up): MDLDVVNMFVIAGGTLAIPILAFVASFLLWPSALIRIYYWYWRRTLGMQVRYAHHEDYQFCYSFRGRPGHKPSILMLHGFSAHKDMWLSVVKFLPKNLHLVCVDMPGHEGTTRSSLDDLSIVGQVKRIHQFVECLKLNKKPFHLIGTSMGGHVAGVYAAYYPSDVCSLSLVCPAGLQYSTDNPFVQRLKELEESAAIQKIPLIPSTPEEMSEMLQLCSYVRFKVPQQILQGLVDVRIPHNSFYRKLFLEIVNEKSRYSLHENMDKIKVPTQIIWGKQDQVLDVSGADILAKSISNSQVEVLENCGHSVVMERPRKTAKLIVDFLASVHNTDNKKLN

[30] = system: Pafah1b2; settings: mouse cells, stronger effect = lower value
[31] = system: Pafah1b3; settings: mouse cells, stronger effect = lower value
[32] = biological target: Palmitoyl-protein thioesterase ABHD10, mitochondrial (Mus musculus) (UniProt Q6PE15); settings: mouse cells, stronger effect = lower value
Palmitoyl-protein thioesterase ABHD10, mitochondrial (Mus musculus), sequence (Q6PE15 whole entry, looked up): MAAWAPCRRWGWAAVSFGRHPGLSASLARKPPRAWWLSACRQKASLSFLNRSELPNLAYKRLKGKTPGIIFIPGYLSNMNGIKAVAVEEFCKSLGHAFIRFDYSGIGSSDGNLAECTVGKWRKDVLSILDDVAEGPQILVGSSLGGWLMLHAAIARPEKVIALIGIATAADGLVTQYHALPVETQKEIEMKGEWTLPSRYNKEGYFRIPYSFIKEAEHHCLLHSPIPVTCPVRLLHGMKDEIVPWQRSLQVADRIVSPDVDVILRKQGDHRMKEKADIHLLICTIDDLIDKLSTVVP

[33] = system: Parl; settings: mouse cells, stronger effect = lower value
[34] = biological target: Platelet-activating factor acetylhydrolase 2, cytoplasmic (Mus musculus) (UniProt Q8VDG7); settings: mouse cells, Pafah2, stronger effect = lower value
Platelet-activating factor acetylhydrolase 2, cytoplasmic (Mus musculus), sequence (Q8VDG7 whole entry, looked up): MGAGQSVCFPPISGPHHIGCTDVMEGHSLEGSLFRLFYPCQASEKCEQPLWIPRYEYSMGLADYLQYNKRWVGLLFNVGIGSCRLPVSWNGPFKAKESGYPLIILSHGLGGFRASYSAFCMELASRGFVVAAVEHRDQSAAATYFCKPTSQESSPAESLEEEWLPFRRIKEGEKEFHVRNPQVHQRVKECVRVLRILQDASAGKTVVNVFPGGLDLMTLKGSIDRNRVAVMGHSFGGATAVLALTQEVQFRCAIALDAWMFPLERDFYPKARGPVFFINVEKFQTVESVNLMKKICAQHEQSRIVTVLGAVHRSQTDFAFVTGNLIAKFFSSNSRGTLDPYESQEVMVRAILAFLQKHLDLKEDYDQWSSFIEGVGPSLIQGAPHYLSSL

[35] = system: Plat; settings: mouse cells, stronger effect = lower value
[36] = system: Pme1; settings: mouse cells, stronger effect = lower value
[37] = system: Pnpla6; settings: mouse cells, stronger effect = lower value
[38] = system: Pnpla7; settings: mouse cells, stronger effect = lower value
[39] = system: Pnpla8; settings: mouse cells, stronger effect = lower value
[40] = system: Ppt2; settings: mouse cells, stronger effect = lower value
[41] = system: Prepl; settings: mouse cells, stronger effect = lower value
[42] = biological target: Prolyl endopeptidase (Mus musculus) (UniProt Q9QUR6); settings: mouse cells, Prep, stronger effect = lower value
Prolyl endopeptidase (Mus musculus), sequence (Q9QUR6 whole entry, looked up): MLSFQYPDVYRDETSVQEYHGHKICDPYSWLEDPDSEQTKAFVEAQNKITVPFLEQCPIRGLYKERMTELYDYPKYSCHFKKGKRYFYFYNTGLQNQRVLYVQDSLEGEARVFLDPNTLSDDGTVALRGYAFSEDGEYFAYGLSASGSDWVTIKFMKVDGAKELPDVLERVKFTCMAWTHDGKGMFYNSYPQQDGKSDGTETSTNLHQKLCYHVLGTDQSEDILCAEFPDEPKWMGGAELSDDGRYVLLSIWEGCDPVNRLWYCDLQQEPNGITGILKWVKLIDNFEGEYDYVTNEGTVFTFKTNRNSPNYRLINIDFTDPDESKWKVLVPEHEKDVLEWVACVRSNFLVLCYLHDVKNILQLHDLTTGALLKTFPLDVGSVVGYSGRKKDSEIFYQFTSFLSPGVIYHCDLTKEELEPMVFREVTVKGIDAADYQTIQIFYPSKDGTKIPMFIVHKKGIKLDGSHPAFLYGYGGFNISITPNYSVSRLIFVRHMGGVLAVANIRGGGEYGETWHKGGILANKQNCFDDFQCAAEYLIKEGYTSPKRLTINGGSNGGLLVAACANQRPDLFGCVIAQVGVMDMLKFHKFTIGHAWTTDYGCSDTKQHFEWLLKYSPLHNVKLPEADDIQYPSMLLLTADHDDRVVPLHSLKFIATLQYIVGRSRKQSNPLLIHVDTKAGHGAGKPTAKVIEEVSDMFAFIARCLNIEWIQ

[43] = system: Qrsl1; settings: mouse cells, stronger effect = lower value
[44] = system: Scpep1; settings: mouse cells, stronger effect = lower value
[45] = system: Serhl; settings: mouse cells, stronger effect = lower value
[46] = system: Tpp2; settings: mouse cells, stronger effect = lower value

Structure (SMILES): COc1ccccc1-c1ccc(-c2cn(C(=O)N3CCCCC3Cc3ccccc3)nn2)cc1 (stereo unspecified)
- SILAC ratio (treated/control probe labeling) [1]: 1.41 (inactive)
- SILAC ratio (treated/control probe labeling) [2]: 1.15 (inactive)
- SILAC ratio (treated/control probe labeling) [3]: 0.96 (inactive)
- SILAC ratio (treated/control probe labeling) [4]: 1.39 (inactive)
- SILAC ratio (treated/control probe labeling) [5]: 1.36 (inactive)
- SILAC ratio (treated/control probe labeling) [6]: 0.93 (inactive)
- SILAC ratio (treated/control probe labeling) [7]: 0.97 (inactive)
- SILAC ratio (treated/control probe labeling) [8]: 1.33 (inactive)
- SILAC ratio (treated/control probe labeling) [9]: 1.5 (inactive)
- SILAC ratio (treated/control probe labeling) [10]: 1.19 (inactive)
- SILAC ratio (treated/control probe labeling) [11]: 0.99 (inactive)
- SILAC ratio (treated/control probe labeling) [12]: 0.11
- SILAC ratio (treated/control probe labeling) [13]: 1.19 (inactive)
- SILAC ratio (treated/control probe labeling) [14]: 0.94 (inactive)
- SILAC ratio (treated/control probe labeling) [15]: 1.13 (inactive)
- SILAC ratio (treated/control probe labeling) [16]: 1.06 (inactive)
- SILAC ratio (treated/control probe labeling) [17]: 1.16 (inactive)
- SILAC ratio (treated/control probe labeling) [18]: 1.2 (inactive)
- SILAC ratio (treated/control probe labeling) [19]: 1.1 (inactive)
- SILAC ratio (treated/control probe labeling) [20]: 1.33 (inactive)
- SILAC ratio (treated/control probe labeling) [21]: 1.06 (inactive)
- SILAC ratio (treated/control probe labeling) [22]: 1.32 (inactive)
- SILAC ratio (treated/control probe labeling) [23]: 1.17 (inactive)
- SILAC ratio (treated/control probe labeling) [24]: 1.12 (inactive)
- SILAC ratio (treated/control probe labeling) [25]: 1.86 (inactive)
- SILAC ratio (treated/control probe labeling) [26]: 1.01 (inactive)
- SILAC ratio (treated/control probe labeling) [27]: 0.97 (inactive)
- SILAC ratio (treated/control probe labeling) [28]: 1.47 (inactive)
- SILAC ratio (treated/control probe labeling) [29]: 0.17
- SILAC ratio (treated/control probe labeling) [30]: 1.03 (inactive)
- SILAC ratio (treated/control probe labeling) [31]: 0.99 (inactive)
- SILAC ratio (treated/control probe labeling) [32]: 1.02 (inactive)
- SILAC ratio (treated/control probe labeling) [33]: 1.07 (inactive)
- SILAC ratio (treated/control probe labeling) [34]: 0.98 (inactive)
- SILAC ratio (treated/control probe labeling) [35]: 2.04 (inactive)
- SILAC ratio (treated/control probe labeling) [36]: 1.08 (inactive)
- SILAC ratio (treated/control probe labeling) [37]: 1.22 (inactive)
- SILAC ratio (treated/control probe labeling) [38]: 1.43 (inactive)
- SILAC ratio (treated/control probe labeling) [39]: 1.26 (inactive)
- SILAC ratio (treated/control probe labeling) [40]: 1.37 (inactive)
- SILAC ratio (treated/control probe labeling) [41]: 1 (inactive)
- SILAC ratio (treated/control probe labeling) [42]: 1 (inactive)
- SILAC ratio (treated/control probe labeling) [43]: 1.45 (inactive)
- SILAC ratio (treated/control probe labeling) [44]: 1.46 (inactive)
- SILAC ratio (treated/control probe labeling) [45]: 1.38 (inactive)
- SILAC ratio (treated/control probe labeling) [46]: 0.83 (inactive)
